Where two headings read alike, the source gives them in different places.
Experiments:
[1] = tested as water soluble phosphate prodrug PR 104P; cited from earlier work
AKR1C3 = biological target: T1, AKR1C3 (Homo sapiens, UniProt P42330); conditions: cited from earlier work
T1 sequence (P42330 1-323): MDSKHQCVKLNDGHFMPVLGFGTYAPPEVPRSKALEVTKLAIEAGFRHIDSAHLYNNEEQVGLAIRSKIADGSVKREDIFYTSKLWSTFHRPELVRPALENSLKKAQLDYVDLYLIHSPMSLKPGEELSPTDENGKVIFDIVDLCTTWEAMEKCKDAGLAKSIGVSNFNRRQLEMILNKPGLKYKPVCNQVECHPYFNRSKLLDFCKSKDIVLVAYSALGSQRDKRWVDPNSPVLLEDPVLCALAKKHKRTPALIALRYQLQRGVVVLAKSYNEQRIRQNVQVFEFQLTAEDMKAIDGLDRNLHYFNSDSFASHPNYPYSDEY

[2] = test system: H460 non cell lung cancer human tumor cell line; experiment: In vitro human tumor cell line cytotoxicity / proliferation assay (AlamarBlue) with and without AKR1C3 inhibitor; format: cell-based
Description: In vitro proliferation data on the H460 […] human tumor cell line is determined based on IC50 measured by exposure of compounds at various concentrations for 2 hrs followed by a wash step and addition of fresh media followed by growth and cell viability staining and comparison to a media only treated control.
Specifically, exponentially growing cells are seeded at a density of 4×10^3 cells per well in a 96 well plate and incubated at 37° C. in 5% CO2, 95% air and 100% relative humidity for 24 hours prior to addition of test compounds. Compounds are solubilized in 100% DMSO at 200 times the desired final test concentration. At the time of drug addition, compounds are further diluted to 4 times the desired final concentration with complete medium. Aliquots of 50 μl of compound at specified concentrations are added to microtiter wells already containing 150 μl of medium, resulting in the final drug concentration reported. After drug addition the plates are incubated 72 hrs at 37° C., 5% CO2, 95% air and 100% relative humidity. At the end of this incubation, the viable cells are quantified using the AlamarBlue assay. The drug concentration resulting in growth inhibition of 50% (IC50) is calculated using Prism software (Irvine, Calif.).
Cell proliferation were performed in the presence (3 micromolar) and absence of a specific inhibitor of the AKR 1C3 enzyme. The case of added inhibitor was added to cell culture 2 hours prior to compound treatment. The inhibitor used was compound 36 in Flanagan, et al, Bioorganic and Medicinal Chemistry (2014) p 962-977.
Proliferation data of TH compounds in H460 in the presence/absence of the specific AKR 1C3 inhibitor

[3] = NCI-H460, H460 cells, absence of specific AKR 1C3 inhibitor, read-out: IC50 (without inhibitor)
[4] = NCI-H460, H460 cells, presence of 3 micromolar specific AKR 1C3 inhibitor added 2 hours prior to compound treatment, read-out: IC50 (with inhibitor)

For `CS(=O)(=O)OCCN(CCBr)c1c(C(=O)NCCO)cc([N+](=O)[O-])cc1[N+](=O)[O-]` [PR 104], the “efficacy in clinical trials” value [1] is given as “ineffective” and the “substrate for AKR1C3” value (AKR1C3) is given as “weak substrate”.
For `CC(=O)O[C@H]1C(=O)[C@@]2(C)[C@H]([C@H](OC(=O)c3ccccc3)[C@]3(O)C[C@H](OC(=O)[C@H](OC(=O)N(C)CCN(C)C(=O)OCc4ccc([N+](=O)[O-])c(Oc5ccc6ncccc6c5)c4)[C@@H](NC(=O)c4ccccc4)c4ccccc4)C(C)=C1C3(C)C)[C@]1(OC(C)=O)CO[C@@H]1C[C@@H]2O` [TH3047], the IC50 [2, 3] was 30 nM and the IC50 [2, 4] was 30000 nM.
`CC(=O)O[C@H]1C(=O)[C@@]2(C)[C@H]([C@H](OC(=O)c3ccccc3)[C@]3(O)C[C@H](OC(=O)[C@H](OC(=O)N(C)CCN(C)C(=O)OC(C)c4ccc([N+](=O)[O-])c(Oc5ccc6ncccc6c5)c4)[C@@H](NC(=O)c4ccccc4)c4ccccc4)C(C)=C1C3(C)C)[C@]1(OC(C)=O)CO[C@@H]1C[C@@H]2O` (stereo partly shown) [TH3054] showed an IC50 [2, 3] of 30 nM and an IC50 [2, 4] of 91000 nM.
In the case of `CCN(CCCCBr)P(=O)(OCc1ccc([N+](=O)[O-])c(Oc2ccc(-c3ccccc3)cc2)c1)OCC1OC(n2ccc(N)nc2=O)C(F)(F)C1O` (stereo not shown) [TH3057], the IC50 ([2]; NCI-H460, read-out: IC50 (without inhibitor)) is reported as 200 nM.
